Data reported in publication PMC8591608, “DNDI-6148: A Novel Benzoxaborole Preclinical Candidate for the Treatment of Visceral Leishmaniasis” (Journal of Medicinal Chemistry, 2021).
Read-outs that look alike come from different tables or passages of the source.

Legend:
[1] = In vivo pharmacokinetics in rat; design: species or system male Sprague-Dawley rats; details: for MRT inf: read-out: MRT0-inf; for MRT last: read-out: MRT0-last
Experimental: DNDI-6148 was formulated in 2% ethanol, 1 mol equiv NaOH, dextrose (5% solution), and administrated to male Sprague-Dawley rats, either i.v. after filtration and pH adjustment (at 2 mg/kg), or p.o. as a homogenous suspension (at 10 mg/kg). The K2-EDTA anticoagulant was added to blood samples collected at predose, 0.083 (i.v. only), 0.25, 0.5, 1, 2 (p.o. only), 4, 8, and 24 h, and were processed to plasma and stabilized with phosphoric acid (1% final) before analysis by LC-MS/MS. PK parameters were calculated using WinNonlin software (version 6.21 and 6.3).

L. infantum = L. infantum mouse model of VL; type: in vivo
[2] = test system: CPSF3 (Asn219His)-overexpressing L. donovani promastigotes; assay: Drug sensitivity, CPSF3 (Asn219His)-overexpressing L. donovani promastigotes; type: cell-based; details: Leishmania donovani
Experimental: The clonal L. donovani cell line LdBOB (derived from MHOM/SD/62/1S-CL2D) was grown as promastigotes at 28 °C, as described previously. Bloodstream form T. brucei MiTat 1.2 clone 221a and its derived subline, 2T1, were cultured at 37 °C in the presence of 5% CO2 in HMI9-T medium, as described previously. T. brucei cell lines overexpressing CPSF3 and overexpressing a mutated version of CPSF3 (Asn232His) were generated as part of a previous study and cultured as described.[19]
L. donovaniCPSF3 gene (LdBPK_343210.1) was custom synthesized by GeneArt and ligated into the pIR1SAT vector via BglII restriction sites. Using the Q5 mutagenesis kit (NEB) and the pIR1SAT-LdCPSF3^WT construct as a template, mutations encoding A655C and Asn219His change to CPSF3^WT were introduced. Mutations were introduced using the specific primers 5′-GAGTACACGGCATCCGC-3′ and 5′-[…]-3′ and as per manufacturers’ instructions. Wild-type and mutated pIR1SAT constructs were digested with SwaI and transfected into L. donovani promastigotes, as previously described. Resistant clones were selected with nourseothricin (100 μg/mL), and two clones per transfection were selected for further study.
Drug sensitivity assays with wild-type and transgenic T. brucei and L. donovani cell lines were carried out as previously described.[31],[32]

[3] = test system: panel of 88 targets (Cerep panel); assay: Off-target panel (Eurofins Cerep panel); details: at a concentration of 10 μM
CYP2C19 = CYP2C19 (Homo sapiens, UniProt P33261); assay: CYP inhibition, CYP2C19; type: in vitro ADME; details: human liver microsomes
Experimental: (§1) The study was conducted by WuXi AppTec, Co., China, using the time-dependent (TDI) method. […] Following incubation with substrates (phenacetin for 1A2, diclofenac for 2C9, S-(+) mephenytoin for 2C19, dextromethorphan for 2D6, and midazolam or testosterone for 3A4), reactions were stopped by adding ice-cold acetonitrile, the samples were analyzed for the formation of metabolites by LC-MS/MS, and the percentage of inhibition was determined.

CYP3A4 = CYP3A4 (Homo sapiens, UniProt P08684); assay: CYP inhibition, CYP3A4; type: in vitro ADME; details: human liver microsomes
Experimental: as §1

[4] = Human PK and dose prediction by allometric scaling
[5] = test system: Salmonella typhimurium strains (TA98 and TA100); assay: Mini-Ames reverse mutation screen; type: cell-based; details: TA98 and TA100, with and without metabolic activation, 1.5 to 1000 μg/well
Experimental: Mini-Ames reverse mutation screens were conducted by WuXi AppTec, Co., China. Two Salmonella typhimurium strains (TA98 and TA100) were employed, both in the presence and absence of metabolic activation (induced rat liver S9). Test compounds were assessed at doses of 1.5, 4, 10, 25, 64, 160, 400, and 1000 μg per well, 2-aminoanthracene, 2-nitrofluorene, and sodium azide were used as positive controls, and the negative control was DMSO.

[6] = Liver microsome stability, rat; type: in vitro ADME; details: Sprague-Dawley, rat liver microsomes, pH 7.4
Experimental: (§2) Tests were performed by WuXi AppTec, China. Test compounds (at 1 μM) or positive controls (testosterone, propafenone, and diclofenac) were incubated at 37 °C with liver microsomes from Balb/c mouse, golden (Syrian) hamster, Sprague-Dawley rat, Beagle dog, or human in the presence of a NADPH regenerating system and phosphate buffer (100 mM, pH 7.4) at 0.4 or 0.8 mg/mL microsomal protein. The samples were removed at time intervals from 0 to 60, 90, or 120 min and immediately mixed with cold methanol supplemented or not with acid (3% formic acid) and centrifuged prior to analysis by LC-MS/MS using tolbutamide or propranolol as internal standards.

[7] = Liver microsome stability, dog; type: in vitro ADME; details: Beagle, dog liver microsomes, pH 7.4
Experimental: as §2

[8] = male, Sprague-Dawley, plasma, iv, rat, i.v. 2 mg/kg
[9] = male, Sprague-Dawley, rat, plasma, IV 2.32 mg/kg, mean of R1-R3
[10] = male, Sprague-Dawley, rat, plasma, PO 10.4 mg/kg, mean of R4-R6
[11] = allometric scaling from rat and dog PK data

Chain of CYP3A4 (P08684 2-503 limits assumed): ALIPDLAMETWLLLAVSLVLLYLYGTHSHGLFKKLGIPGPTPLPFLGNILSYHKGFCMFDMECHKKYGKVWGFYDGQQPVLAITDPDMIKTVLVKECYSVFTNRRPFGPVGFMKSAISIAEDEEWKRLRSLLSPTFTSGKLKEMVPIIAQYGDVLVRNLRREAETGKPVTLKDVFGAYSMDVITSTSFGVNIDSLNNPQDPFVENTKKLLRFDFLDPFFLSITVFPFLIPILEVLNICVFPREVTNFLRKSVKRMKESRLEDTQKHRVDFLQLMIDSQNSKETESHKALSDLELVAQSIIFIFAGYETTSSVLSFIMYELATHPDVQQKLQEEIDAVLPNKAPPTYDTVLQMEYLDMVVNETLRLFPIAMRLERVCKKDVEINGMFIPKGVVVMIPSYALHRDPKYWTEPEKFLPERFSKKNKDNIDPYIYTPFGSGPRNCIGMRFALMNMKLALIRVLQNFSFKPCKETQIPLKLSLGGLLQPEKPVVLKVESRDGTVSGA
Chain of CYP2C19 (P33261 whole entry): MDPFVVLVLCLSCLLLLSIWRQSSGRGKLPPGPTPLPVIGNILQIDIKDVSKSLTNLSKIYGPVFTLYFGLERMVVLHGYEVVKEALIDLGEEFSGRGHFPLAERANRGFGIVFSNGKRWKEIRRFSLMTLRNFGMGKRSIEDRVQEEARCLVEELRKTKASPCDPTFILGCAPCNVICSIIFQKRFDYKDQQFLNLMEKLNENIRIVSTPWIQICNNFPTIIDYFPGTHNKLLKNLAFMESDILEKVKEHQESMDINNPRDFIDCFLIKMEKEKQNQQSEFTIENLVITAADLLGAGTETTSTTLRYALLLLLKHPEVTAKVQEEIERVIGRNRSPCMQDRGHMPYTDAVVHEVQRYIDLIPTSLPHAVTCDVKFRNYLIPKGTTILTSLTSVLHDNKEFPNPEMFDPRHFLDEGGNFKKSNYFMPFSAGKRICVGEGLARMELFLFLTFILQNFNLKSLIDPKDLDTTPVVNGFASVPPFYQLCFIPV

Q: What does the source list for `Cc1c(C(=O)Nc2ccc3c(c2)B(O)OC3)nnn1-c1ccccn1` [Compound 23, N-(1-Hydroxy-1,3-dihydrobenzo[c][1,2]oxaborol-6-yl)-5-methyl-1-(pyridin-2-yl)-1H-1,2,3-triazole-4-carboxamide]?
A: Plasma concentration ([1]; IV 2.32 mg/kg, plasma, 5 min, mean of R1-R3): 4727; Plasma concentration ([1]; IV 2.32 mg/kg, plasma, 0.25 h, mean of R1-R3): 4093; Plasma concentration ([1]; IV 2.32 mg/kg, plasma, 0.50 h, mean of R1-R3): 3627; Plasma concentration ([1]; IV 2.32 mg/kg, plasma, 1.00 h, mean of R1-R3): 2767; Plasma concentration ([1]; IV 2.32 mg/kg, plasma, 4.00 h, mean of R1-R3): 537; Plasma concentration ([1]; IV 2.32 mg/kg, plasma, 8.00 h, mean of R1-R3): 84.9; Plasma concentration ([1]; IV 2.32 mg/kg, plasma, 24.0 h, mean of R1-R3): 5.67; AUC0-inf/AUC0-last ([1]; IV 2.32 mg/kg, mean of R1-R3): 100%; Tlast ([1]; IV 2.32 mg/kg, mean of R1-R3): 24.0 h; Plasma concentration ([1]; PO 10.4 mg/kg, plasma, 0.25 h, mean of R4-R6): 4287; Plasma concentration ([1]; PO 10.4 mg/kg, plasma, 0.50 h, mean of R4-R6): 3993; Plasma concentration ([1]; PO 10.4 mg/kg, plasma, 1.00 h, mean of R4-R6): 5153; Plasma concentration ([1]; PO 10.4 mg/kg, plasma, 2.00 h, mean of R4-R6): 6900; Plasma concentration ([1]; PO 10.4 mg/kg, plasma, 4.00 h, mean of R4-R6): 5773; Plasma concentration ([1]; PO 10.4 mg/kg, plasma, 8.00 h, mean of R4-R6): 1249; Plasma concentration ([1]; PO 10.4 mg/kg, plasma, 24.0 h, mean of R4-R6): 13.8; AUC0-inf/AUC0-last ([1]; PO 10.4 mg/kg, mean of R4-R6): 100%; Tlast ([1]; PO 10.4 mg/kg, mean of R4-R6): 24.0 h; Vd at 24 h [1, 8]: 0.6 L/kg; half-life at 24 h [1, 8]: 2.8 h; clearance ([1]; male, Sprague-Dawley, plasma, iv, rat, i.v. 2 mg/kg, read-out: clearance): 0.27 L/h/kg; bioavailability ([1]; male, Sprague-Dawley, plasma, po, rat, p.o. 10 mg/kg, read-out: F): 94%; AUC(0-inf) [1, 9]: 9.16 µg·h/mL; AUC(0-t) [1, 9]: 9.14 µg·h/mL; C0 [1, 9]: 5.1 µg/mL; half-life [1, 9]: 2.75 h; clearance ([1]; male, Sprague-Dawley, rat, plasma, IV 2.32 mg/kg, mean of R1-R3, read-out: Cl): 0.27 L/h/kg; MRT inf [1, 9]: 2.29 h; MRT last [1, 9]: 2.21 h; Vd ([1]; male, Sprague-Dawley, rat, plasma, IV 2.32 mg/kg, mean of R1-R3, read-out: Vdss): 0.603 L/kg; bioavailability ([1]; male, Sprague-Dawley, rat, plasma, PO 10.4 mg/kg vs IV 2.32 mg/kg, mean, read-out: Bioavailability): 94%; AUC(0-inf) [1, 10]: 38.6 µg·h/mL; AUC(0-t) [1, 10]: 38.5 µg·h/mL; Cmax [1, 10]: 7.33 µg/mL; Tmax [1, 10]: 2.67 h; half-life [1, 10]: 2.34 h; MRT inf [1, 10]: 4.18 h; MRT last [1, 10]: 4.15 h; reduction in liver parasite burden following 5 days of p.o. dosing BID, L. infantum (L. infantum; 25 mg/kg BID): 96.1%; reduction in liver parasite burden following 5 days of p.o. dosing BID, L. infantum (L. infantum; 50 mg/kg BID): 98.6%; EC50 [2]: 1.67 ± 0.051 µM; activity in panel of 88 targets [3]: ≤ 50%; IC50 (CYP2C19): > 50 µM; IC50 (CYP3A4): > 50 µM; predicted efficacious human dose ([4]; BID dosing in humans): 3 to 20 mg/kg; predicted bioavailability in humans [4, 11]: 40–90%; predicted clearance in humans [4, 11]: 0.06 to 0.24 L/h/kg; Ames assay result [5]: negative; microsomal CLint at 1 μM [6]: < 11.9 µL/min/mg; microsomal CLint at 1 μM [7]: 5.8 µL/min/mg
